Test results taken from patent publication US20240197635A1, “DISSOCIATING POLYMER MATRIX COMPOSITIONS OF FULVESTRANT AND METHODS OF THEIR MAKING AND USE” (VeraMorph LLC, priority 2021, published 2024).

Test: In vitro dissolution of fulvestrant-loaded DPODs in simulated gastric fluid
Conditions: aqueous dissolution media
Procedure: The exact time of release can vary from 5 minutes to 120 minutes, with the capability to dissolve in less than 60 minutes and in less than 30 minutes and in less than 20 minutes depending on the exact pH. These parameters can be controlled by modifying the extent of drug loading and the composition of the DPOD.

C[C@]12CC[C@@H]3c4ccc(O)cc4C[C@@H](CCCCCCCCC[S+]([O-])CCCC(F)(F)C(F)(F)F)[C@H]3[C@@H]1CC[C@@H]2O (stereo partly drawn) [fulvestrant, 7α-[9-[(4,4,5,5,5-Pentafluoropentyl)-sulfinyl]nonyl]estra-1,3,5(10)-triene-3,17β-diol]
saturation concentration of fulvestrant: 2 µg/mL
